Source: US20220323406A1, “METHODS AND COMPOSITIONS FOR DIFFERENTIATING STEM CELLS” (Massachusetts Institute of Technology, priority 2019, published 2022)

Columns and labels:
[1] = test system: ENR+CD organoids (ISC to Paneth cell differentiation); assay: Primary screen: basal (non-stimulated) lysozyme secretion LYZ.NS, 2.5-D 384-well ENR+CD organoid differentiation; format: cell-based, mouse
Description: (§1) High-throughput screening.

[2] = test system: ENR+CD organoids (ISC to Paneth cell differentiation); assay: Primary screen: CCh-stimulated lysozyme secretion LYZ.S, 2.5-D 384-well ENR+CD organoid differentiation; format: cell-based, mouse; details: primary screen
Description: as §1

[3] = test system: ENR+CD organoids; assay: Primary screen: ATP (CellTiter-Glo 3D, CTG) cell number/viability, 2.5-D 384-well ENR+CD organoids;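 note: compounds given at plating and again on day 3 over a 6-day differentiation from ENR+CV stem-cell-enriched precursors, ATP measured on day 6, plate median as control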
[4] = primary screen, dose 0.08 uM, FC relative to plate median
[5] = primary screen, dose 0.08 uM, standard z score
[6] = primary screen, dose 0.40 uM, FC relative to plate median
[7] = primary screen, dose 0.40 uM, standard z score
[8] = primary screen, dose 2.00 uM, FC relative to plate median
[9] = primary screen, dose 2.00 uM, standard z score
[10] = primary screen, dose 10.00 uM, FC relative to plate median
[11] = primary screen, dose 10.00 uM, standard z score
[12] = dose 0.08 uM, FC relative to plate median
[13] = dose 0.40 uM, FC relative to plate median
[14] = dose 2.00 uM, FC relative to plate median
[15] = dose 10.00 uM, FC relative to plate median
[16] = primary screen, standard z score, dose 0.08 uM
[17] = primary screen, standard z score, dose 0.40 uM
[18] = primary screen, standard z score, dose 2.00 uM
[19] = primary screen, standard z score, dose 10.00 uM
[20] = primary screen, 1st dose row of the treatment (0.08 uM by row order; dose not reprinted)
[21] = primary screen, 2nd dose row of the treatment (0.40 uM by row order; dose not reprinted)
[22] = primary screen, 3rd dose row of the treatment (2.00 uM by row order; dose not reprinted)
[23] = primary screen, 4th dose row of the treatment (10.00 uM by row order; dose not reprinted)
[24] = 1st dose row of the treatment (0.08 uM by row order; dose not reprinted)
[25] = 2nd dose row of the treatment (0.40 uM by row order; dose not reprinted)
[26] = 3rd dose row of the treatment (2.00 uM by row order; dose not reprinted)
[27] = 4th dose row of the treatment (10.00 uM by row order; dose not reprinted)

Row | Molecule | Dose.FC.LYZ.NS ([1]; primary screen, dose 0.08 uM) | Dose.FC.LYZ.NS ([1]; primary screen, dose 0.40 uM) | Dose.FC.LYZ.NS ([1]; primary screen, dose 2.00 uM) | Dose.FC.LYZ.NS ([1]; primary screen, dose 10.00 uM) | Dose.FC.LYZ.S ([2]; dose 0.08 uM) | Dose.FC.LYZ.S ([2]; dose 0.40 uM) | Dose.FC.LYZ.S ([2]; dose 2.00 uM) | Dose.FC.LYZ.S ([2]; dose 10.00 uM) | Dose.FC.CTG ([3]; primary screen, dose 0.08 uM) | Dose.FC.CTG ([3]; primary screen, dose 0.40 uM) | Dose.FC.CTG ([3]; primary screen, dose 2.00 uM) | Dose.FC.CTG ([3]; primary screen, dose 10.00 uM) | Z.LYZ.NS (standard z score) ([1]; primary screen, dose 0.08 uM) | Z.LYZ.NS (standard z score) ([1]; primary screen, dose 0.40 uM) | Z.LYZ.NS (standard z score) ([1]; primary screen, dose 2.00 uM) | Z.LYZ.NS (standard z score) ([1]; primary screen, dose 10.00 uM) | Z.CTG (standard z score) ([3]; primary screen, dose 0.08 uM) | Z.CTG (standard z score) ([3]; primary screen, dose 0.40 uM) | Z.CTG (standard z score) ([3]; primary screen, dose 2.00 uM) | Z.CTG (standard z score) ([3]; primary screen, dose 10.00 uM) | further results
1 | CNC(=C[N+](=O)[O-])NCCSCc1ccc(CN(C)C)o1 [Ranitidine] |  |  |  |  |  |  |  |  |  |  |  |  |  |  |  |  |  |  |  |  | Dose.FC.LYZ.NS [1, 4]: −0.027 log2 fold change; Z.LYZ.NS [1, 5]: −0.234; Dose.FC.LYZ.NS [1, 6]: 0.011 log2 fold change; Z.LYZ.NS [1, 7]: 0.095; Dose.FC.LYZ.NS [1, 8]: −0.045 log2 fold change; Z.LYZ.NS [1, 9]: −0.389; Dose.FC.LYZ.NS [1, 10]: −0.046 log2 fold change; Z.LYZ.NS [1, 11]: −0.401; Dose.FC.LYZ.S [2, 12]: −0.020 log2 fold change; Dose.FC.LYZ.S [2, 13]: 0.071 log2 fold change; Dose.FC.LYZ.S [2, 14]: −0.040 log2 fold change; Dose.FC.LYZ.S [2, 15]: −0.043 log2 fold change; Dose.FC.CTG [3, 4]: −0.051 log2 fold change; Dose.FC.CTG [3, 6]: 0.155 log2 fold change; Dose.FC.CTG [3, 8]: −0.069 log2 fold change; Dose.FC.CTG [3, 10]: −0.262 log2 fold change
2 | C=CC(=O)Nc1cccc(Nc2nc(Nc3ccc(Oc4ccnc(C(=O)NC)c4)cc3)ncc2F)c1 [CNX-774] | 0.075 log2 fold change | −0.008 log2 fold change | 0.158 log2 fold change | −0.043 log2 fold change | 0.014 log2 fold change | −0.027 log2 fold change | 0.082 log2 fold change | −0.089 log2 fold change | 0.259 log2 fold change | 0.177 log2 fold change | −0.109 log2 fold change | −0.081 log2 fold change |  |  |  |  |  |  |  |  | Z.LYZ.NS [1, 16]: 0.655; Z.LYZ.NS [1, 17]: −0.067; Z.LYZ.NS [1, 18]: 1.378; Z.LYZ.NS [1, 19]: −0.376; Z.CTG [3, 16]: 0.619; Z.CTG [3, 17]: 0.422; Z.CTG [3, 18]: −0.260; Z.CTG [3, 19]: −0.194
3 | SN-38 |  |  |  |  |  |  |  |  |  |  |  |  |  |  |  |  |  |  |  |  | Dose.FC.LYZ.NS [1, 4]: −0.275 log2 fold change; Z.LYZ.NS [1, 5]: −2.391; Dose.FC.LYZ.NS [1, 6]: −0.288 log2 fold change; Z.LYZ.NS [1, 7]: −2.505; Dose.FC.LYZ.NS [1, 8]: −0.305 log2 fold change; Z.LYZ.NS [1, 9]: −2.655; Dose.FC.LYZ.NS [1, 10]: −0.299 log2 fold change; Z.LYZ.NS [1, 11]: −2.606; Dose.FC.LYZ.S [2, 12]: −0.419 log2 fold change; Dose.FC.LYZ.S [2, 13]: −0.402 log2 fold change; Dose.FC.LYZ.S [2, 14]: −0.391 log2 fold change; Dose.FC.LYZ.S [2, 15]: −0.404 log2 fold change; Dose.FC.CTG [3, 4]: −0.720 log2 fold change; Z.CTG [3, 5]: −1.720; Dose.FC.CTG [3, 6]: −1.091 log2 fold change; Z.CTG [3, 7]: −2.606; Dose.FC.CTG [3, 8]: −1.226 log2 fold change; Z.CTG [3, 9]: −2.929; Dose.FC.CTG [3, 10]: −1.166 log2 fold change; Z.CTG [3, 11]: −2.785
4 | (−)-MK 801 Maleate | 0.008 log2 fold change | −0.099 log2 fold change | −0.256 log2 fold change | −0.259 log2 fold change | 0.015 log2 fold change | −0.179 log2 fold change | −0.334 log2 fold change | −0.403 log2 fold change | 0.127 log2 fold change | −0.377 log2 fold change | −0.702 log2 fold change | −0.936 log2 fold change | 0.072 | −0.864 | −2.227 | −2.255 | 0.303 | −0.899 | −1.677 | −2.236 | SSMD.LYZ.NS_Rep (strictly standardized mean difference) [1, 20]: 0.070; SSMD.LYZ.NS_Rep (strictly standardized mean difference) [1, 21]: −0.550; SSMD.LYZ.NS_Rep (strictly standardized mean difference) [1, 22]: −1.315; SSMD.LYZ.NS_Rep (strictly standardized mean difference) [1, 23]: −1.708; SSMD.LYZ.S_Rep (strictly standardized mean difference) [2, 24]: 0.116; Z.LYZ.S (standard z score) [2, 24]: 0.099; SSMD.LYZ.S_Rep (strictly standardized mean difference) [2, 25]: −0.976; Z.LYZ.S (standard z score) [2, 25]: −1.159; SSMD.LYZ.S_Rep (strictly standardized mean difference) [2, 26]: −1.187; Z.LYZ.S (standard z score) [2, 26]: −2.160; SSMD.LYZ.S_Rep (strictly standardized mean difference) [2, 27]: −1.768; Z.LYZ.S (standard z score) [2, 27]: −2.604; SSMD.CTG.Rep (strictly standardized mean difference) [3, 20]: 0.442; SSMD.CTG.Rep (strictly standardized mean difference) [3, 21]: −1.342; SSMD.CTG.Rep (strictly standardized mean difference) [3, 22]: −1.102; SSMD.CTG.Rep (strictly standardized mean difference) [3, 23]: −1.696
5 | Cl.N[C@@H]1C[C@H]1c1ccccc1 (racemic) [Tranylcypromine (2-PCPA) HCl] | 0.033 log2 fold change | −0.049 log2 fold change | 0.049 log2 fold change | −0.045 log2 fold change | 0.050 log2 fold change | −0.037 log2 fold change | 0.036 log2 fold change | −0.096 log2 fold change | −0.064 log2 fold change | 0.062 log2 fold change | 0.053 log2 fold change | −0.533 log2 fold change | 0.285 | −0.426 | 0.423 | −0.389 | −0.153 | 0.148 | 0.128 | −1.274 | 
6 | CCO.N#CC(=C(/N)Sc1ccccc1N)/C(C#N)=C(\N)Sc1ccccc1N [U0126-EtOH] | 0.099 log2 fold change | 0.019 log2 fold change | −0.045 log2 fold change | −0.117 log2 fold change | 0.114 log2 fold change | 0.075 log2 fold change | −0.071 log2 fold change | −0.165 log2 fold change | −0.350 log2 fold change | −0.514 log2 fold change | −0.476 log2 fold change | −0.790 log2 fold change | 0.859 | 0.163 | −0.389 | −1.021 | −0.835 | −1.227 | −1.138 | −1.887 | 
7 | CCOC(=O)[C@H]1O[C@@H]1C(=O)N[C@@H](CC(C)C)C(=O)NCCC(C)C [Aloxistatin] | 0.020 log2 fold change | −0.029 log2 fold change | −0.037 log2 fold change | −0.142 log2 fold change | 0.025 log2 fold change | −0.016 log2 fold change | −0.091 log2 fold change | −0.181 log2 fold change | −0.006 log2 fold change | −0.006 log2 fold change | −0.129 log2 fold change | −0.214 log2 fold change | 0.171 | −0.250 | −0.324 | −1.236 |  |  |  |  | 
8 | Cc1ccc(C(=O)N(CCCN)[C@@H](c2nc3cc(Cl)ccc3c(=O)n2Cc2ccccc2)C(C)C)cc1 [Ispinesib (SB-715992)] |  |  |  |  |  |  |  |  |  |  |  |  | −1.931 | −1.663 | −1.709 | −1.752 | −0.772 | −1.238 | −1.220 | −1.704 | Dose.FC.LYZ.NS (log2 fold change) ([1]; primary screen, dose 0.08 uM): −0.222; Dose.FC.LYZ.NS (log2 fold change) ([1]; primary screen, dose 0.40 uM): −0.191; Dose.FC.LYZ.NS (log2 fold change) ([1]; primary screen, dose 2.00 uM): −0.196; Dose.FC.LYZ.NS (log2 fold change) ([1]; primary screen, dose 10.00 uM): −0.201; Dose.FC.LYZ.S (log2 fold change) ([2]; dose 0.08 uM): −0.271; Dose.FC.LYZ.S (log2 fold change) ([2]; dose 0.40 uM): −0.296; Dose.FC.LYZ.S (log2 fold change) ([2]; dose 2.00 uM): −0.287; Dose.FC.LYZ.S (log2 fold change) ([2]; dose 10.00 uM): −0.286; Dose.FC.CTG (log2 fold change) ([3]; primary screen, dose 0.08 uM): −0.323; Dose.FC.CTG (log2 fold change) ([3]; primary screen, dose 0.40 uM): −0.518; Dose.FC.CTG (log2 fold change) ([3]; primary screen, dose 2.00 uM): −0.511; Dose.FC.CTG (log2 fold change) ([3]; primary screen, dose 10.00 uM): −0.713
9 | CC(=O)O[C@]1(C(C)=O)CC[C@H]2[C@@H]3C=C(Cl)C4=CC(=O)[C@@H]5C[C@@H]5[C@]4(C)[C@H]3CC[C@@]21C [Cyproterone Acetate] | −0.026 log2 fold change | −0.074 log2 fold change | −0.055 log2 fold change | −0.081 log2 fold change | 0.040 log2 fold change | −0.019 log2 fold change | −0.093 log2 fold change | −0.134 log2 fold change | −0.110 log2 fold change | 0.051 log2 fold change | −0.143 log2 fold change | −0.173 log2 fold change |  |  |  |  |  |  |  |  | Z.LYZ.NS [1, 16]: −0.225; Z.LYZ.NS [1, 17]: −0.642; Z.LYZ.NS [1, 18]: −0.479; Z.LYZ.NS [1, 19]: −0.702
